From ChEMBL document CHEMBL1201862, “PubChem BioAssay data set” (2004)
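96-well plates; 48 h exposure; 5 concentrations. Endpoints by linear interpolation between flanking doses. Not reached: highest tested concentration assigned. Here, GI50 denotes the concentration required for 50% inhibition of growth.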 Calls of active or inactive are those of the source. Rule as the data show it: active = GI50 up to about 1.1 µM and inactive = higher.

How the values were obtained:
Test in all cases: NCI anticancer screen, dose series, 48 h
[1] = tested on: MDA-MB-435
[2] = tested on: HCT-116
[3] = tested on: SF-268
[4] = tested on: RXF 393
[5] = tested on: SNB-75
[6] = tested on: UO-31
[7] = tested on: LOX IMVI
[8] = tested on: SK-OV-3
[9] = tested on: RPMI-8226
[10] = tested on: 786-0
[11] = tested on: HOP-62
[12] = tested on: CCRF-CEM
[13] = tested on: SF-295
[14] = tested on: ACHN
[15] = tested on: HOP-92
[16] = tested on: TK-10
[17] = tested on: SK-MEL-28
[18] = tested on: NCI-H23
[19] = tested on: NCI-H522
[20] = tested on: COLO 205

SMILES | GI50 [1] | GI50 [2] | GI50 [3] | GI50 [4] | GI50 [5] | GI50 [6] | GI50 [7] | GI50 [8] | GI50 [9] | GI50 [10] | GI50 [11] | GI50 [12] | GI50 [13] | GI50 [14] | GI50 [15] | GI50 [16] | GI50 [17] | GI50 [18] | GI50 [19] | GI50 [20]
O=C1c2ccccc2C(=O)c2c(OCC3CO3)ccc(OCC3CO3)c21 (configuration not stated) | 2.7 µM (inactive) | 1.99 µM (inactive) | 0.346 µM (active) | 3.96 µM (inactive) | 12.4 µM (inactive) | 2.94 µM (inactive) | 0.0386 µM (active) | 12.4 µM (inactive) | 6 µM (inactive) | 1.48 µM (inactive) | 1.95 µM (inactive) | < 0.0167 µM (active) | 2.28 µM (inactive) | 0.964 µM (active) | 2.67 µM (inactive) | 18.8 µM (inactive) | 5.47 µM (inactive) | 4.12 µM (inactive) | 3.26 µM (inactive) | 4.44 µM (inactive)
NS(=O)(=O)c1ccc(/N=N/c2ncccc2O)cc1 | > 100 µM (inactive) | 39.3 µM (inactive) | > 100 µM (inactive) | > 100 µM (inactive) | > 100 µM (inactive) | > 100 µM (inactive) | 77.4 µM (inactive) | > 100 µM (inactive) | > 100 µM (inactive) | 53.1 µM (inactive) | > 100 µM (inactive) | – | > 100 µM (inactive) | > 100 µM (inactive) | > 100 µM (inactive) | > 100 µM (inactive) | > 100 µM (inactive) | 51.4 µM (inactive) | 44.9 µM (inactive) | > 100 µM (inactive)
C=CCNS(=O)(=O)c1ncnc2[nH]cnc12 | > 100 µM (inactive) | > 100 µM (inactive) | – | 59.7 µM (inactive) | > 100 µM (inactive) | > 100 µM (inactive) | 67.9 µM (inactive) | > 100 µM (inactive) | 11.8 µM (inactive) | > 100 µM (inactive) | > 100 µM (inactive) | > 100 µM (inactive) | > 100 µM (inactive) | > 100 µM (inactive) | 5.75 µM (inactive) | > 100 µM (inactive) | > 100 µM (inactive) | > 100 µM (inactive) | > 100 µM (inactive) | > 100 µM (inactive)
COc1ccc2nc(-c3ccccc3)cc(OCC(=O)O)c2c1 | > 100 µM (inactive) | > 100 µM (inactive) | > 100 µM (inactive) | – | > 100 µM (inactive) | 25.4 µM (inactive) | > 100 µM (inactive) | > 100 µM (inactive) | > 100 µM (inactive) | > 100 µM (inactive) | > 100 µM (inactive) | > 100 µM (inactive) | > 100 µM (inactive) | > 100 µM (inactive) | > 100 µM (inactive) | > 100 µM (inactive) | > 100 µM (inactive) | > 100 µM (inactive) | > 100 µM (inactive) | > 100 µM (inactive)
CCCCCCCC/C=C\CCCCCCC/C=C1\C[C@](/C=C/C(=O)OC)(CO)OC1=O | 1.25 µM (inactive) | 2.16 µM (inactive) | 1.96 µM (inactive) | 5.28 µM (inactive) | 1.92 µM (inactive) | 1.15 µM (inactive) | 1.38 µM (inactive) | 6.3 µM (inactive) | – | 1.33 µM (inactive) | 1.86 µM (inactive) | 1.32 µM (inactive) | 2.23 µM (inactive) | 2.19 µM (inactive) | 2.94 µM (inactive) | 1.93 µM (inactive) | 1.6 µM (inactive) | 3.71 µM (inactive) | 2.58 µM (inactive) | 2.02 µM (inactive)
CCCCc1ccc(Nc2nc3c(ncn3COCCBr)c(=O)[nH]2)cc1 | > 100 µM (inactive) | > 100 µM (inactive) | > 100 µM (inactive) | 84.5 µM (inactive) | > 100 µM (inactive) | > 100 µM (inactive) | > 100 µM (inactive) | > 100 µM (inactive) | > 100 µM (inactive) | > 100 µM (inactive) | > 100 µM (inactive) | > 100 µM (inactive) | > 100 µM (inactive) | > 100 µM (inactive) | > 100 µM (inactive) | > 100 µM (inactive) | – | > 100 µM (inactive) | > 100 µM (inactive) | > 100 µM (inactive)
C=CCn1c(-c2ccc([N+](=O)[O-])cc2)csc1=N | 43.5 µM (inactive) | 37.3 µM (inactive) | 74.5 µM (inactive) | 7.43 µM (inactive) | 19.5 µM (inactive) | 37.2 µM (inactive) | 20.3 µM (inactive) | 54.7 µM (inactive) | – | 74.6 µM (inactive) | 78.2 µM (inactive) | 11.1 µM (inactive) | 18.4 µM (inactive) | 83.2 µM (inactive) | 47.5 µM (inactive) | 66.7 µM (inactive) | > 100 µM (inactive) | 30 µM (inactive) | 36.6 µM (inactive) | > 100 µM (inactive)
COc1cc(C2c3cc4c(cc3C(O)C3CCC(=O)N23)OCO4)cc(OC)c1OC (configuration not stated) | 3.54 µM (inactive) | 24.3 µM (inactive) | 49.9 µM (inactive) | – | 26.7 µM (inactive) | 15.7 µM (inactive) | 52.4 µM (inactive) | 80.2 µM (inactive) | 27.1 µM (inactive) | 52.5 µM (inactive) | 39.2 µM (inactive) | 29.9 µM (inactive) | 6.68 µM (inactive) | 40 µM (inactive) | 33 µM (inactive) | 69.2 µM (inactive) | 16.8 µM (inactive) | 53 µM (inactive) | 16.9 µM (inactive) | 37 µM (inactive)
CO[C@@H]1C[C@H]2[C@@H]3CC[C@H]([C@H](C)COC(C)=O)[C@@]3(C)CC[C@@H]2[C@@]2(C)CC[C@H]3C[C@]312 | > 100 µM (inactive) | > 100 µM (inactive) | > 100 µM (inactive) | > 100 µM (inactive) | > 100 µM (inactive) | > 100 µM (inactive) | > 100 µM (inactive) | – | > 100 µM (inactive) | > 100 µM (inactive) | > 100 µM (inactive) | > 100 µM (inactive) | > 100 µM (inactive) | > 100 µM (inactive) | 73.5 µM (inactive) | > 100 µM (inactive) | > 100 µM (inactive) | > 100 µM (inactive) | > 100 µM (inactive) | 34 µM (inactive)
C=C1C(=O)OC2/C=C(\C)C(=O)CC3OC(C)(C)OC3(C)CC(OC(=O)/C(C)=C/C)C12 (configuration not stated) | 19.6 µM (inactive) | 7.43 µM (inactive) | 12.6 µM (inactive) | 12 µM (inactive) | > 42.9 µM (inactive) | 13.9 µM (inactive) | 12.2 µM (inactive) | 55.5 µM (inactive) | 3.66 µM (inactive) | 7.66 µM (inactive) | 58.1 µM (inactive) | 0.897 µM (active) | 42 µM (inactive) | 3.68 µM (inactive) | 13.6 µM (inactive) | 13.2 µM (inactive) | 11.9 µM (inactive) | 20.2 µM (inactive) | 2.99 µM (inactive) | 6.35 µM (inactive)
CCc1cccc(CC)c1NC(=S)NC(=O)c1ccc(Br)cc1 | 23 µM (inactive) | 28.8 µM (inactive) | 45 µM (inactive) | 19.1 µM (inactive) | 26.4 µM (inactive) | 26.3 µM (inactive) | > 39.4 µM (inactive) | 64.9 µM (inactive) | 33.1 µM (inactive) | 30.1 µM (inactive) | 32.4 µM (inactive) | 17.7 µM (inactive) | > 53 µM (inactive) | 32.4 µM (inactive) | 18.5 µM (inactive) | 25.3 µM (inactive) | 55.1 µM (inactive) | 29.6 µM (inactive) | 17.6 µM (inactive) | 18.1 µM (inactive)
COc1ccc2c(c1)SC1=Nc3sc4cc(OC)ccc4[n+]3CN12 | 26.9 µM (inactive) | 41 µM (inactive) | 2.89 µM (inactive) | – | – | 53 µM (inactive) | – | 70.5 µM (inactive) | 20.7 µM (inactive) | 29.9 µM (inactive) | 49.8 µM (inactive) | 20.3 µM (inactive) | 31.3 µM (inactive) | 49.8 µM (inactive) | 2.23 µM (inactive) | 51.4 µM (inactive) | – | 15.7 µM (inactive) | 1.38 µM (inactive) | 2.96 µM (inactive)
O=C1CCCCC1CN1CCCCC1 (configuration not stated) | > 100 µM (inactive) | > 100 µM (inactive) | > 100 µM (inactive) | > 100 µM (inactive) | > 100 µM (inactive) | > 100 µM (inactive) | > 100 µM (inactive) | > 100 µM (inactive) | – | > 100 µM (inactive) | > 100 µM (inactive) | > 100 µM (inactive) | > 100 µM (inactive) | > 100 µM (inactive) | > 100 µM (inactive) | > 100 µM (inactive) | > 100 µM (inactive) | > 100 µM (inactive) | 1.91 µM (inactive) | > 100 µM (inactive)
Oc1ccc(-c2nn3c(CCCCCCCCc4nnc5sc(-c6ccc(O)cc6)nn45)nnc3s2)cc1 | > 100 µM (inactive) | > 100 µM (inactive) | > 100 µM (inactive) | > 100 µM (inactive) | > 100 µM (inactive) | > 100 µM (inactive) | > 100 µM (inactive) | > 100 µM (inactive) | > 100 µM (inactive) | > 100 µM (inactive) | > 100 µM (inactive) | > 100 µM (inactive) | > 100 µM (inactive) | > 100 µM (inactive) | > 100 µM (inactive) | > 100 µM (inactive) | > 100 µM (inactive) | > 100 µM (inactive) | > 100 µM (inactive) | > 100 µM (inactive)
